Measured values reported in ChEMBL document CHEMBL1140957, “GRIND-based 3D-QSAR to predict inhibitory activity for similar enzymes, OSC and SHC” (Eur J Med Chem, 2008).
“And” between values parts separate entries of the source, which are not always exact repeats. Equal values may be shown once.

biological target: not listed separately; assay: Inhibition of squalene-hopene cyclase

First: CN(CCCCCCOC1CCN(C(=O)c2ccc(F)cc2)CC1)C1CC1
Second: C=CCN(C)CCCCCCOC1CCN(C(=O)c2ccc(F)cc2)CC1
The pIC50 of the first is higher: 6.12 for the first, 5.92 for the second.

`CN(C[C@H]1C[C@@H]1COc1ccc(C(=O)c2ccc(Br)cc2)c(F)c1)C1CC1` and `CN(C[C@H]1C[C@@H]1COc1ccc(C(=O)c2ccc(Br)cc2)cc1)C1CC1` are within 0.2 log units of each other in pIC50: 7.3 for the first, 7.21 for the second.

Compared with `CN(CCCCCCOc1ccc(C(=O)c2ccc(Br)cc2)c(F)c1)C1CC1`, `C=CCN(C)CCCCCCOc1ccc(C(=O)c2ccc(Br)cc2)cc1` is lower in pIC50: 7.42 for the first, 7.02 for the second.

Compared with `C=CCN(C)CCCCCCOc1ccc2c(-c3ccc(Br)cc3)noc2c1`, `C=CCN(C)CCCCCCOc1ccc2c(c1)CON=C2c1ccc(Br)cc1` is lower in pIC50: 7.12 for the first, 6.76 for the second.

Going from `CN(CCCO)CCCCCCOc1ccc(C(=O)c2ccc(Br)cc2)cc1` to `C=CCN(C)C/C=C/COc1ccc(C(=O)c2ccc(Br)cc2)cc1`, the pIC50 rises from 6.55 to 7.4.

First: C=CCN(C)C/C=C/COc1ccc(-c2nsc3cc(Br)ccc23)cc1
Second: C=CCN(C)C/C=C/COc1ccc2c(-c3ccc(Br)cc3)noc2c1
The pIC50 of the first is lower: 6.89 for the first, 7.31 for the second.

For `C=CCN(C)C/C=C/COc1ccc2c(-c3ccc(Br)cc3)csc2c1`, the pIC50 was 7.12.

For `C=CCN(C)CCCCCCOc1ccc2c(c1)c(C)nn2C`, the pIC50 was 6.54 and 6.48.

biological target: T1, Lanosterol synthase (Homo sapiens, UniProt P48449); assay: Inhibition of oxidosqualene cyclase
T1 sequence (P48449 whole entry): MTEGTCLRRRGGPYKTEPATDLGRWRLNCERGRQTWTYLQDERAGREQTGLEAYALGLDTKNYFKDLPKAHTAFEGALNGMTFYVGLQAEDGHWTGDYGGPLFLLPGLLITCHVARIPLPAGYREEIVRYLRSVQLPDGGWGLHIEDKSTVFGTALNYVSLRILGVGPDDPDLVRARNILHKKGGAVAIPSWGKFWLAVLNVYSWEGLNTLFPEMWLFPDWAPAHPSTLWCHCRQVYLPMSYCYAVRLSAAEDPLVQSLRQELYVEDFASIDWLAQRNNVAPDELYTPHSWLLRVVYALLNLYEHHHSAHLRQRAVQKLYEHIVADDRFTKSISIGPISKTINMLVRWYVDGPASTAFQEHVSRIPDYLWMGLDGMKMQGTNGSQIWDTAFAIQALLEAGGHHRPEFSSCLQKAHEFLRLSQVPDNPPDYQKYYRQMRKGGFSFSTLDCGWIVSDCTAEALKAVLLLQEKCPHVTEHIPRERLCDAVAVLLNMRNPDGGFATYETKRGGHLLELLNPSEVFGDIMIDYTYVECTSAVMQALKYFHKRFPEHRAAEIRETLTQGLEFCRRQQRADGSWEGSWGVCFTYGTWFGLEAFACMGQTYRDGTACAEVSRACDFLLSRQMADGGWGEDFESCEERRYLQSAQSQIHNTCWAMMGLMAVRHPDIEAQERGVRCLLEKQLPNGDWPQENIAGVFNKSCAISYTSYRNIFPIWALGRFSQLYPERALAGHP

Going from `C=CCN(C[C@H]1C[C@@H]1COc1ccc(C(=O)c2ccc(Br)cc2)cc1)C1CC1` to `CN(CCCO)CCCCCCOc1ccc(C(=O)c2ccc(Br)cc2)cc1`, the IC50 rises from 6.46 nM to 28.8 nM (4.5-fold).

For `C=CCN(C)CCCCCCOc1ccc2c(c1)c(C)nn2C`, the IC50 was 19.5 nM.
